Measurements reported in patent US4242354A, “2-(2-Thenolythio)-propionylglycine: method for its preparation and pharmaceutical formulations containing said compound” (Mediolanum Farmaceutici S.r.L., priority 1978, dated 1980).

How the values were obtained:
[1] = Stability test: physical properties and weight variations on heating; assay type: physicochemical
Method: (§1) The stability tests were carried out according to the Rogers' nonisothermic method suitably integrated by the evaluation of physical data, melting point, weight variation, and spectrophotometric assay. For each single compound, the tests were performed on a series of samples, with the weight of 100 milligrams, added for the wet tests with 1 ml of distilled water. […] The sample were kept in a thermostat at increasing temperatures, i.e. from 25° to 80° C. […] The temperature, programmed according to the Rogers' formula, resulted to be 40° C. at the end of the first hour, 50° C. at the end of the second hour, 57° C. at the end of the third hour, 63° C. at the end of the fourth hour, 69° C. at the end of the fifth hour, 73° C. at the end of the sixth hour, 77° C. at the end of the seventh hour and, as already specified, 80° C. at the end of the eighth hour.
Still in Table 5, the sample from 1 to 5 refer, for each of the two compounds, to the dry substance while the samples from 6 to 10 refer to the solution or to the aqueous suspension obtained as above specified.
In the case of the wet-treated samples, the final weight was only established on the samples No. 10 brought to dryness at 60° C. under vacuum after an 8-hour heating.

[2] = tested on: carbon tetrachloride poisoning; assay: Protective activity in the carbon tetrachloride poisoning; assay type: in vivo, male rats (Sprague-Dawley)
Method: Fifty male rats (Sprague-Dawley, 180-200 grams bodyweight) were used for the investigation, subdivided into 5 groups: one group was given no treatment while the remaining 4 groups were poisoned for 7 consecutive days with CCl4 at the dosage of […] given subcutaneously.

[3] = tested on: SO2-induced experimental bronchitis; assay: Experimental bronchitis in the rat (SO2 inhalation); assay type: in vivo, male rats, Sprague-Dawley strain; set-up: key to Macroscopic Examination, significance vs. controls (S) / Visualization of the bronchial tract, significance vs. controls (S) / Microscopic Examination, significance vs. controls (S): h.s.: highly significant; settings: 50 mg/kg; for Visualization of the bronchial tract score (E, mean ± standard error): control 2.50 ± 0.26; for Microscopic Examination score (E, mean ± standard error): control 2.75 ± 0.16
Method: For the purpose 40 male rats, Sprague-Dawley strain, 320-370 grams, subdivided into 4 groups each consisting of 10 elements were subjected to the following treatments:
Group 1: poisoning treatment (SO2)
For the poisoning-induction the animals were subjected to a constant air flow containing SO2 at a 0.03 percent concentration. The poisoning treatment was given for 15 days subjecting the rats, 2 hours daily, to an inhalation of SO2 for 15-minute periods. […] The animals were killed on the day following the last inhalation.
The lungs were withdrawn together with the trachea, fixed in 10 percent formalin, and subjected to a macroscopic examination, dipped thereafter into the same fixing fluid for 24 hours, and thereafter for one hour in absolute ethanol.
The bronchial tree was thereafter evidenced with alcian blue; moreover, a subsequent staining was made with the Schiff's reagent in order to evidence the muchopolysaccharides.
Each lung was given the following arbitary score:
(1) Macroscopic Examination:
5=large hemorrhagic spots
(2) Visualization of the Bronchial Tree with Alcian Blue:
1=almost uniform staining
3=quite irregular staining.
(3) Bronchopulmonary Alterations at the Microscopic Examination: […]

[4] = tested on: histamine-induced bronchial spasm; assay: Bronchial spasm due to histamine aerosol in the guinea-pig; assay type: in vivo, spotted guinea-pigs, male, Morini strain; set-up: key to time of resistance to the spasm, significance vs. controls (S): h.s.: highly significant; settings: 50 mg/kg; for time of resistance to the spasm, significance vs. controls (S): one hour; for time of resistance to the spasm (E, mean ± standard error): one hour after treatment, control 114.1 ± 5.4
Method: Thirty spotted guinea-pigs, male, Morini strain, 400-500 g bodyweight, were used for the investigation, subdivided into 5 lots, each consisting of 6 animals. The animals were singly placed in a tightly sealed plexiglas cage into which a 0.1 percent aqueous solution of histamine hydrochloride was aerosolized. The time of resistance to the spasm was calculated from the moment of introduction into the cage up to the time of the appearance of the dyspnea crisis.
Group 1: controls with no treatment
In any case, the dose was 50 mg/kg.

[5] = Stability test: melting point before and after heating; assay type: physicochemical
Method: as §1
The melting point was established in a capillary tube, under identical conditions, on the samples No. 5 after heating for 8 hours in the previously specified conditions, and on the samples No. 10 after heating and evaporation to dryness as previously specified.

[6] = tested on: dog; assay: Chronic toxicity in the dog; assay type: in vivo; settings: dogs
[7] = sample 1, dry, 1 hour 30 minutes
[8] = sample 3, dry, 5 hours 15 minutes
[9] = sample 10, wet, 8 hours, brought to dryness
[10] = group 3, aerosol (so in the source)

Compound: CC(SC(=O)c1cccs1)C(=O)NCC(=O)O (stereo not drawn) [compound (I), 2-(2-thenoylthio)-propionylglycine]
- Color [1, 7]: white
- Smell [1, 7]: almost absent
- Weight Fin. [1, 7]: 95.4 mg
- Weight Variations [1, 7]: -5.26%
- Color ([1]; sample 2, dry, 3 hours): white
- Weight Fin. ([1]; sample 2, dry, 3 hours): 94.5 mg
- Weight Variations ([1]; sample 2, dry, 3 hours): -5.03%
- Color [1, 8]: white
- Smell [1, 8]: almost absent
- Weight Fin. [1, 8]: 95.1 mg
- Weight Variations [1, 8]: -5.37%
- Color ([1]; sample 4, dry, 8 hours): white
- Smell ([1]; sample 4, dry, 8 hours): almost absent
- Weight Fin. ([1]; sample 4, dry, 8 hours): 94.9 mg
- Weight Variations ([1]; sample 4, dry, 8 hours): -5.74%
- Smell ([1]; sample 5, dry, 8 hours): almost absent
- Weight Fin. ([1]; sample 5, dry, 8 hours): 194.1 mg
- Weight Variations ([1]; sample 5, dry, 8 hours): -3.67%
- Smell ([1]; sample 6, wet): almost absent
- Smell ([1]; sample 7, wet): almost absent
- Smell ([1]; sample 8, wet): almost absent
- Smell ([1]; sample 9, wet): almost absent
- Weight Fin. [1, 9]: 201.3 mg
- Weight Variations [1, 9]: -2.94%
- liver weight increase consequent to CCl4 ([2]; CCl4 0.5 ml/mg sc, 7 days, drugs intramuscularly, (I) 200 and 300 mg/kg, (II) 300 mg/kg): can prevent the liver weight increase
- efficacy in comparison with 2-mercaptopropionylglycine ([2]; equivalent dosage, CCl4 poisoning, rat): statistically significant efficacy in preventing the liver weight increase as well as in reducing the liver fats levels
- Macroscopic Examination, significance vs. controls (S) ([3]; group 2, aerosol): h.s.
- Microscopic Examination, significance vs. controls (S) ([3]; group 2, aerosol): h.s.
- Visualization of the bronchial tract, significance vs. controls (S) ([3]; group 2, aerosol): h.s.
- Visualization of the bronchial tract score (E, mean ± standard error) ([3]; group 2, aerosol): 0.87 ± 0.29
- Microscopic Examination score (E, mean ± standard error) ([3]; group 2, aerosol): 0.87 ± 0.29
- Macroscopic Examination, significance vs. controls (S) [3, 10]: h.s.
- Microscopic Examination, significance vs. controls (S) [3, 10]: h.s.
- Visualization of the bronchial tract, significance vs. controls (S) [3, 10]: h.s.
- Visualization of the bronchial tract score (E, mean ± standard error) [3, 10]: 0.87 ± 0.29
- Microscopic Examination score (E, mean ± standard error) [3, 10]: 0.75 ± 0.31
- Macroscopic Examination score (E, mean ± standard error) ([3]; group 3, aerosol (so in the source), control 4.00 ± 0.26): 1.12 ± 0.39
- Macroscopic Examination, significance vs. controls (S) ([3]; group 4, subcutaneous): h.s.
- Microscopic Examination, significance vs. controls (S) ([3]; group 4, subcutaneous): h.s.
- Visualization of the bronchial tract, significance vs. controls (S) ([3]; group 4, subcutaneous): h.s.
- Visualization of the bronchial tract score (E, mean ± standard error) ([3]; group 4, subcutaneous): 0.75 ± 0.31
- Microscopic Examination score (E, mean ± standard error) ([3]; group 4, subcutaneous): 1.00 ± 0.26
- protective action, experimental bronchitis (SO2) ([3]; rat): marked protective action
- bronchial-spasm relieving action ([4]; all the assessed routes): remarkable bronchial-spasm relieving action
- time of resistance to the spasm, significance vs. controls (S) ([4]; group 2, orally): h.s.
- time of resistance to the spasm (E, mean ± standard error) ([4]; group 2, orally, before treatment 116.00 ± 8.84): 184.7 ± 14.2 s
- time of resistance to the spasm, significance vs. controls (S) ([4]; group 3, aerosol): h.s.
- time of resistance to the spasm (E, mean ± standard error) ([4]; group 3, aerosol, before treatment 113.00 ± 5.62): 170.3 ± 10.9 s
- time of resistance to the spasm, significance vs. controls (S) ([4]; group 4, intraperitoneally): h.s.
- time of resistance to the spasm (E, mean ± standard error) ([4]; group 4, intraperitoneally, before treatment 112.16 ± 7.9): 187.2 ± 16.1 s
- time of resistance to the spasm, significance vs. controls (S) ([4]; group 5, rectally): h.s.
- time of resistance to the spasm (E, mean ± standard error) ([4]; group 5, rectally, before treatment 117.5 ± 6.39): 178.5 ± 11.9 s
- melting point variation ([5]; after heating): no variations
- Final m.p. wet conditions (Sample 10) ([5]; after heating 8 hours wet and evaporation to dryness): 166-167 °C
- Final m.p. dry conditions (Sample 5) ([5]; after heating for 8 hours, dry): 166-167 °C
- Initial m.p. ([5]; before heating): 166-167 °C
- chronic toxicity results [6]: optimal
